Reference: patent publication US4029778A (priority 1969, dated 1977)
Read-outs that look alike come from different tables or passages of the source.

What was measured:
[1] = Walker 256 tumor growth inhibition and lethality, oral (Table 5); assay type: in vivo; conditions: in vivo
Description: (§1) The esters of the invention have shown effect in inhibiting the growth of several tumors, e.g., Ehrlich ascites, Hepatoma AH 130, lymphocytic leukemia (L1210), Walker 256 and Harding-Passey Melanoma according to the procedure of Cancer Chemotherapy National Service Center (Ref.: Cancer Chemotherapy Reports, December 1962).

Walker 256 = assay: as above; assay type: in vivo
Description: as §1

Hepatoma 130 tumor [2] = conditions: in vivo, ip
[3] = Hepatoma 130 tumor growth inhibition and lethality, oral (Table 5); assay type: in vivo; conditions: in vivo, 1 × dose
Description: as §1

Hepatoma 130 = assay: as above; assay type: in vivo; conditions: 1 × dose
Description: as §1

in vivo [4] = conditions: ip
[5] = Harding-Passey Melanoma growth inhibition and lethality, oral (Table 5); assay type: in vivo; conditions: in vivo, 11 × dose
Description: as §1

Harding-Passey Melanoma = assay: as above; assay type: in vivo; conditions: 11 × dose
Description: as §1

Ehrlich ascites tumor [6] = conditions: in vivo, ip; for Lethality: 1000 mg/kg
Walker 256 tumor [7] = assay: animal or person; conditions: Walker 256, ip, read-out: ED50 (Effect)
Hepatoma 130 tumor [8] = assay: animal or person; conditions: ip, read-out: ED50 (Effect)
Walker 256 tumor [9] = conditions: in vivo
[10] = system: Harding-Passey Melanoma tumor
Ehrlich ascites tumor [11] = assay: animal or person; conditions: ip, read-out: ED50 (Effect)
tumors = assay: antitumor activity (statement in words); assay type: in vivo
Experimental: as §1
The esters of this invention were tested for effectiveness in inhibiting the growth of Ehrlich ascites, Hepatoma 130, lymphocytic leukemia (L 1210), and Harding-Passey Melanoma, and Walker 256 tumors. The administration was by the intraperitoneal route in each case.

[12] = system: Harding-Passey Melanoma tumor; assay: animal or person; conditions: ip, read-out: ED50 (Effect)
in vivo [13] = conditions: ip; remark: listed apart in the source

In the case of O=C(O)CCCc1ccc(N(CCCl)CCCl)cc1 [Chlorambucil, reference compound], the LD50 [1] is reported as 13.5 mg/kg, the “ED50 (Effect)” value (Walker 256) is reported as 0.42 mg/kg and the “ED50 (Effect)” value (Hepatoma 130 tumor [2]) is reported as 4.3 mg/kg. The LD50 [3] was 55 mg/kg, the “ED50 (Effect)” value (Hepatoma 130) was over 31 mg/kg and the LD50 (in vivo [4]) was 30 mg/kg. For the same molecule, the LD50 [5] was 7 mg/kg and the “ED50 (Effect)” value (Harding-Passey Melanoma) was 2.3 mg/kg.
With C[C@]12C=CC(=O)C=C1CC[C@@H]1[C@@H]2[C@@H](O)C[C@@]2(C)[C@H]1CC[C@]2(O)C(=O)CO [Prednisolone, pregna-1,4-dien-11β,17α ,21-triol-3,20-dion, reference compound] the T.I. (Ehrlich ascites tumor [6]) was over 8.3, the Lethality (Ehrlich ascites tumor [6]) was “no toxicity” and the ED50 (Walker 256 tumor [7]) was 214 mg/kg. It also gave an ED50 (Hepatoma 130 tumor [8]) of 118 mg/kg, a T.I. (Hepatoma 130 tumor [2]) of 6.6 and a T.I. (Walker 256 tumor [9]; ip) of 3.0. The T.I. ([10]; in vivo, ip) was under 2.5, the Effect ([10]; in vivo, ip, 243 mg/kg) was “no effect” and the ED50 (Ehrlich ascites tumor [11]) was 120 mg/kg.
In the case of Cc1ccc(C(=O)OCC(=O)[C@@]2(O)CC[C@H]3[C@@H]4CCC5=CC(=O)CC[C@]5(C)[C@H]4[C@@H](O)C[C@@]32C)cc1N(CCCl)CCCl [hydrocortisone-21-3'-[N-bis-(β-chloroethyl)-amino]-4'-methylbenzoate], the antitumor activity (tumors) is reported as “desired antitumor activity”.
For CC(=O)NC(Cc1ccc(N(CCCl)CCCl)cc1)C(=O)OCC(=O)[C@@]1(O)CC[C@H]2[C@@H]3CCC4=CC(=O)CC[C@]4(C)[C@H]3[C@@H](O)C[C@@]21C (stereo partly drawn) [hydrocortisone-21-3'-{p-[N-bis-(β-chloroethyl)-amino]-phenyl}-2'-acetamido-propionate], the “antitumor activity against Walker 256 tumors” value (Walker 256 tumor [9]) was “same activity”.
In the case of C[C@]12CCC(=O)C=C1CC[C@@H]1[C@@H]2[C@@H](O)C[C@@]2(C)[C@H]1CC[C@]2(O)C(=O)COC(=O)C(N)Cc1ccc(N(CCCl)CCCl)cc1 (stereo partly drawn) [hydrocortisone-21-3'-{p-[N-bis-(β-chloroethyl)-amino]-phenyl}-2'-aminopropionate], the antitumor activity (tumors) is reported as “desired antitumor activity”.
With C[C@]12CCC(=O)C=C1CC[C@@H]1[C@@H]2[C@@H](O)C[C@@]2(C)[C@H]1CC[C@]2(O)C(=O)COC(=O)CCCc1ccc(N(CCCl)CCCl)cc1 [hydrocortisone-21-4'-{p-[N-bis-(β-chloroethyl)-amino]-phenyl}-butyrate] the antitumor activity (tumors) was “desired antitumor activity”.
With C[C@]12CCC(=O)C=C1CC[C@@H]1[C@@H]2[C@@H](O)C[C@@]2(C)[C@H]1CC[C@]2(O)C(=O)COC(=O)c1ccc(N(CCCl)CCCl)cc1 [hydrocortisone-21-p-/N-bis(β -chloroethyl)-amino/-benzoate] the “ED50 (Effect)” value (Ehrlich ascites tumor [6]) was 15 mg/kg, the “ED50 (Effect)” value (Hepatoma 130 tumor [2]) was 28 mg/kg and the “ED50 (Effect)” value ([10]; intraperitoneal, 11 × dose) was 19 mg/kg.
In the case of Cc1ccc(C(=O)OCC(=O)[C@@]2(O)CC[C@H]3[C@@H]4CCC5=CC(=O)C=C[C@]5(C)[C@H]4[C@@H](O)C[C@@]32C)cc1N(CCCl)CCCl [prednisolone-21-3'-[N-bis-(β-chloroethyl)-amino]-4'-methyl-benzoate], the antitumor activity (tumors) is reported as “having the desired antitumor activity”.
With CC(=O)NC(Cc1ccc(N(CCCl)CCCl)cc1)C(=O)OCC(=O)[C@@]1(O)CC[C@H]2[C@@H]3CCC4=CC(=O)C=C[C@]4(C)[C@H]3[C@@H](O)C[C@@]21C (stereo partly drawn) [prednisolone-21-3'-{p-[N-bis-(β-chloroethyl)-amino]-phenyl}-2'-acetamido-propionate] the “antitumor activity against Walker 256 tumors” value (Walker 256 tumor [9]) was “active antitumor agent”.
For C[C@]12C=CC(=O)C=C1CC[C@@H]1[C@@H]2[C@@H](O)C[C@@]2(C)[C@H]1CC[C@]2(O)C(=O)COC(=O)C(N)Cc1ccc(N(CCCl)CCCl)cc1 (stereo partly drawn) [prednisolone-21-3'-{p-[N-bis-(β-chloroethyl)-amino]-phenyl}-2'-aminopropionate], the antitumor activity (tumors) was “desired antitumor activity”.
For C[C@]12C=CC(=O)C=C1CC[C@@H]1[C@@H]2[C@@H](O)C[C@@]2(C)[C@H]1CC[C@]2(O)C(=O)COC(=O)CCCc1ccc(N(CCCl)CCCl)cc1 [prednisolone-21-4'-[p-/N-bis(β-chloroethyl)-amino/-phenyl]-butyrate], the ED50 (Walker 256 tumor [7]) was 1.1 mg/kg, the LD50 [1] was 64 mg/kg and the T.I. (Walker 256) was 64. It also gave an ED50 (Walker 256; Walker 256, read-out: ED50 (Effect)) of 1 mg/kg, an ED50 [12] of 3.1 mg/kg and an ED50 (Hepatoma 130 tumor [8]) of 5.8 mg/kg. For the same molecule, the T.I. (Hepatoma 130 tumor [2]) was 45, the T.I. (Walker 256 tumor [9]; ip) was 29 and the T.I. ([10]; intraperitoneal, 11 × dose) was 2.2. The LD50 [3] was 380 mg/kg, the T.I. (Hepatoma 130) was 2.5 and the ED50 (Hepatoma 130; read-out: ED50 (Effect)) was 155 mg/kg. For the same molecule, the LD50 [5] was 40 mg/kg, the T.I. (Harding-Passey Melanoma) was 6.7 and the ED50 (Harding-Passey Melanoma; read-out: ED50 (Effect)) was 6 mg/kg.
With C[C@]12C=CC(=O)C=C1CC[C@@H]1[C@@H]2[C@@H](O)C[C@@]2(C)[C@H]1CC[C@]2(O)C(=O)COC(=O)c1ccc(N(CCCl)CCCl)cc1 [prednisolone-21-p-/N-bis(β-chloroethyl)-amino/-benzoate] the “ED50 (Effect)” value (Ehrlich ascites tumor [6]) was 13 mg/kg, the Lethality (Ehrlich ascites tumor [6]) was “no toxicity” and the “ED50 (Effect)” value (Hepatoma 130 tumor [2]) was 5.6 mg/kg. For the same molecule, the “ED50 (Effect)” value (Walker 256 tumor [9]; ip) was 9.6 mg/kg, the “ED50 (Effect)” value ([10]; intraperitoneal, 11 × dose) was 3.4 mg/kg and the antitumor activity (tumors) was “desired antitumor activity”.
For C[C@]12C=CC(=O)C=C1CC[C@@H]1[C@@H]2[C@@H](O)C[C@@]2(C)[C@H]1CC[C@]2(O)C(=O)COC(=O)Cc1ccc(N(CCCl)CCCl)cc1 [prednisolone-21-p-/N-bis(β-chloroethyl)-amino/-phenylacetate], the “ED50 (Effect)” value (Hepatoma 130 tumor [2]) was 27 mg/kg and the LD50 (in vivo [4]) was 560 mg/kg.
For C[C@]12C=CC(=O)C=C1CC[C@@H]1[C@@H]2C(=O)C[C@@]2(C)[C@H]1CC[C@]2(O)C(=O)COC(=O)c1ccc(N(CCCl)CCCl)cc1 [prednisone-21-p-/N-bis(β-chloroethyl)-amino/-benzoate], the “ED50 (Effect)” value (Ehrlich ascites tumor [6]) was 12 mg/kg, the Lethality (Ehrlich ascites tumor [6]) was “no toxicity” and the “ED50 (Effect)” value (Hepatoma 130 tumor [2]) was 58 mg/kg. For the same molecule, the Lethality (Hepatoma 130 tumor [2]; 1000 mg/kg) was “no toxicity”, the “ED50 (Effect)” value ([10]; intraperitoneal, 11 × dose) was 18 mg/kg and the LD50 (in vivo [13]) was 97 mg/kg.
